tested on: PC-3; test: Cytotoxicity against human PC3 cells after 48 hrs by MTT assay; format: functional, cell-based; settings: PC-3, 48 h

Row | Structure (SMILES) | IC50 [µM]
1 | COc1cc(-c2nnc3n2NC(c2ccco2)C(C(=O)c2ccccc2)S3)cc(OC)c1OC (centres undefined) | 64.3
2 | COc1cc(-c2nnc3n2NC(c2cccs2)C(C(=O)c2ccccc2)S3)cc(OC)c1OC (centres undefined) | 86.3
3 | COc1cc(-c2nnc3n2NC(c2ccco2)C(C(=O)c2cccc4ccccc24)S3)cc(OC)c1OC (centres undefined) | > 100
4 | COc1cc(-c2nnc3n2NC(c2ccco2)C(C(=O)c2cccc(Br)c2)S3)cc(OC)c1OC (centres undefined) | 63.9
5 | COc1cc(-c2nnc3n2NC(c2ccco2)C(C(=O)c2cccs2)S3)cc(OC)c1OC (centres undefined) | 46.2
6 | COc1cc(-c2nnc3n2NC(c2ccco2)C(C(=O)c2ccc([N+](=O)[O-])cc2)S3)cc(OC)c1OC (centres undefined) | 27.9
7 | O=c1[nH]cc(F)c(=O)[nH]1 [FLUOROURACIL] | 22.6
8 | COc1cccc(C(=O)C2Sc3nnc(-c4cc(OC)c(OC)c(OC)c4)n3NC2c2ccco2)c1 (centres undefined) | 84.6
9 | COc1cc(-c2nnc3n2NC(c2ccco2)C(C(=O)c2ccc(F)c(F)c2)S3)cc(OC)c1OC (centres undefined) | 36
10 | COc1cc(-c2nnc3n2NC(c2ccco2)C(C(=O)c2ccc(Br)cc2)S3)cc(OC)c1OC (centres undefined) | 36.4
11 | COc1cc(-c2nnc3n2NC(c2ccco2)C(C(=O)c2ccccc2F)S3)cc(OC)c1OC (centres undefined) | > 100
12 | COc1cc(C(=O)C2Sc3nnc(-c4cc(OC)c(OC)c(OC)c4)n3NC2c2ccco2)cc(OC)c1OC (centres undefined) | 52.2
13 | COc1cc(-c2nnc3n2NC(c2ccco2)C(C(=O)c2ccc(F)cc2)S3)cc(OC)c1OC (centres undefined) | 27.7
14 | COc1cc(-c2nnc3n2NC(c2ccco2)C(C(=O)c2ccc(-c4ccccc4)cc2)S3)cc(OC)c1OC (centres undefined) | 45.9

tested on: MCF7; test: Cytotoxicity against human MCF7 cells after 48 hrs by MTT assay; format: functional, cell-based; settings: MCF7, 48 h

Row | Structure (SMILES) | IC50 [µM]
15 | COc1cc(-c2nnc3n2NC(c2ccco2)C(C(=O)c2ccccc2)S3)cc(OC)c1OC (centres undefined) | 39.8
16 | COc1cc(-c2nnc3n2NC(c2cccs2)C(C(=O)c2ccccc2)S3)cc(OC)c1OC (centres undefined) | > 100
17 | COc1cc(-c2nnc3n2NC(c2ccco2)C(C(=O)c2cccc4ccccc24)S3)cc(OC)c1OC (centres undefined) | > 100
18 | COc1cc(-c2nnc3n2NC(c2ccco2)C(C(=O)c2cccc(Br)c2)S3)cc(OC)c1OC (centres undefined) | 91.8
19 | COc1cc(-c2nnc3n2NC(c2ccco2)C(C(=O)c2cccs2)S3)cc(OC)c1OC (centres undefined) | > 100
20 | COc1cc(-c2nnc3n2NC(c2ccco2)C(C(=O)c2ccc([N+](=O)[O-])cc2)S3)cc(OC)c1OC (centres undefined) | > 100
21 | O=c1[nH]cc(F)c(=O)[nH]1 [FLUOROURACIL] | 19.4
22 | COc1cccc(C(=O)C2Sc3nnc(-c4cc(OC)c(OC)c(OC)c4)n3NC2c2ccco2)c1 (centres undefined) | > 100
23 | COc1cc(-c2nnc3n2NC(c2ccco2)C(C(=O)c2ccc(F)c(F)c2)S3)cc(OC)c1OC (centres undefined) | 73.2
24 | COc1cc(-c2nnc3n2NC(c2ccco2)C(C(=O)c2ccc(Br)cc2)S3)cc(OC)c1OC (centres undefined) | > 100
25 | COc1cc(-c2nnc3n2NC(c2ccco2)C(C(=O)c2ccccc2F)S3)cc(OC)c1OC (centres undefined) | 94.8
26 | COc1cc(C(=O)C2Sc3nnc(-c4cc(OC)c(OC)c(OC)c4)n3NC2c2ccco2)cc(OC)c1OC (centres undefined) | > 100
27 | COc1cc(-c2nnc3n2NC(c2ccco2)C(C(=O)c2ccc(F)cc2)S3)cc(OC)c1OC (centres undefined) | > 100
28 | COc1cc(-c2nnc3n2NC(c2ccco2)C(C(=O)c2ccc(-c4ccccc4)cc2)S3)cc(OC)c1OC (centres undefined) | > 100

tested on: PC-3; test: Potency index, ratio of IC50 for fluorouracil to IC50 for test compound for human PC3 cells; format: functional; settings: not given

Row | Structure (SMILES) | Ratio IC50
29 | COc1cc(-c2nnc3n2NC(c2ccco2)C(C(=O)c2ccc([N+](=O)[O-])cc2)S3)cc(OC)c1OC (centres undefined) | 0.62
30 | COc1cc(-c2nnc3n2NC(c2ccco2)C(C(=O)c2ccc(F)c(F)c2)S3)cc(OC)c1OC (centres undefined) | 0.62
31 | COc1cc(-c2nnc3n2NC(c2ccco2)C(C(=O)c2ccc(Br)cc2)S3)cc(OC)c1OC (centres undefined) | 0.62
32 | COc1cc(-c2nnc3n2NC(c2ccco2)C(C(=O)c2ccc(F)cc2)S3)cc(OC)c1OC (centres undefined) | 0.62

tested on: A549; test: Cytotoxicity against human A549 cells after 48 hrs by MTT assay; format: functional, cell-based; settings: A549, 48 h

Row | Structure (SMILES) | IC50 [µM]
33 | COc1cc(-c2nnc3n2NC(c2ccco2)C(C(=O)c2ccccc2)S3)cc(OC)c1OC (centres undefined) | 33.4
34 | COc1cc(-c2nnc3n2NC(c2cccs2)C(C(=O)c2ccccc2)S3)cc(OC)c1OC (centres undefined) | 69.4
35 | COc1cc(-c2nnc3n2NC(c2ccco2)C(C(=O)c2cccc4ccccc24)S3)cc(OC)c1OC (centres undefined) | > 100
36 | COc1cc(-c2nnc3n2NC(c2ccco2)C(C(=O)c2cccc(Br)c2)S3)cc(OC)c1OC (centres undefined) | 36.9
37 | COc1cc(-c2nnc3n2NC(c2ccco2)C(C(=O)c2cccs2)S3)cc(OC)c1OC (centres undefined) | 78.7
38 | COc1cc(-c2nnc3n2NC(c2ccco2)C(C(=O)c2ccc([N+](=O)[O-])cc2)S3)cc(OC)c1OC (centres undefined) | > 100
39 | O=c1[nH]cc(F)c(=O)[nH]1 [FLUOROURACIL] | 22.3
40 | COc1cccc(C(=O)C2Sc3nnc(-c4cc(OC)c(OC)c(OC)c4)n3NC2c2ccco2)c1 (centres undefined) | > 100
41 | COc1cc(-c2nnc3n2NC(c2ccco2)C(C(=O)c2ccc(F)c(F)c2)S3)cc(OC)c1OC (centres undefined) | 93.7
42 | COc1cc(-c2nnc3n2NC(c2ccco2)C(C(=O)c2ccc(Br)cc2)S3)cc(OC)c1OC (centres undefined) | 42.1
43 | COc1cc(-c2nnc3n2NC(c2ccco2)C(C(=O)c2ccccc2F)S3)cc(OC)c1OC (centres undefined) | 78.7
44 | COc1cc(C(=O)C2Sc3nnc(-c4cc(OC)c(OC)c(OC)c4)n3NC2c2ccco2)cc(OC)c1OC (centres undefined) | 48.3
45 | COc1cc(-c2nnc3n2NC(c2ccco2)C(C(=O)c2ccc(F)cc2)S3)cc(OC)c1OC (centres undefined) | 53.7
46 | COc1cc(-c2nnc3n2NC(c2ccco2)C(C(=O)c2ccc(-c4ccccc4)cc2)S3)cc(OC)c1OC (centres undefined) | > 100

tested on: HepG2; test: Cytotoxicity against human HepG2 cells after 48 hrs by MTT assay; format: functional, cell-based; settings: HepG2, 48 h

Row | Structure (SMILES) | IC50 [µM]
47 | COc1cc(-c2nnc3n2NC(c2ccco2)C(C(=O)c2ccccc2)S3)cc(OC)c1OC (centres undefined) | 90.9
48 | COc1cc(-c2nnc3n2NC(c2cccs2)C(C(=O)c2ccccc2)S3)cc(OC)c1OC (centres undefined) | > 100
49 | COc1cc(-c2nnc3n2NC(c2ccco2)C(C(=O)c2cccc4ccccc24)S3)cc(OC)c1OC (centres undefined) | 33.9
50 | COc1cc(-c2nnc3n2NC(c2ccco2)C(C(=O)c2cccc(Br)c2)S3)cc(OC)c1OC (centres undefined) | > 100
51 | COc1cc(-c2nnc3n2NC(c2ccco2)C(C(=O)c2cccs2)S3)cc(OC)c1OC (centres undefined) | 64.1
52 | COc1cc(-c2nnc3n2NC(c2ccco2)C(C(=O)c2ccc([N+](=O)[O-])cc2)S3)cc(OC)c1OC (centres undefined) | 87.8
53 | COc1cccc(C(=O)C2Sc3nnc(-c4cc(OC)c(OC)c(OC)c4)n3NC2c2ccco2)c1 (centres undefined) | > 100
54 | COc1cc(-c2nnc3n2NC(c2ccco2)C(C(=O)c2ccc(F)c(F)c2)S3)cc(OC)c1OC (centres undefined) | 52.4
55 | COc1cc(-c2nnc3n2NC(c2ccco2)C(C(=O)c2ccc(Br)cc2)S3)cc(OC)c1OC (centres undefined) | > 100
56 | COc1cc(-c2nnc3n2NC(c2ccco2)C(C(=O)c2ccccc2F)S3)cc(OC)c1OC (centres undefined) | > 100
57 | COc1cc(C(=O)C2Sc3nnc(-c4cc(OC)c(OC)c(OC)c4)n3NC2c2ccco2)cc(OC)c1OC (centres undefined) | > 100
58 | COc1cc(-c2nnc3n2NC(c2ccco2)C(C(=O)c2ccc(F)cc2)S3)cc(OC)c1OC (centres undefined) | > 100
59 | COc1cc(-c2nnc3n2NC(c2ccco2)C(C(=O)c2ccc(-c4ccccc4)cc2)S3)cc(OC)c1OC (centres undefined) | > 100

From ChEMBL document CHEMBL3632555, “Design, synthesis and biological evaluation of novel 1,2,4-triazolo [3,4-b][1,3,4] thiadiazines bearing furan and thiophene nucleus” (Eur J Med Chem, 2015)
